From the supplement of paper PMC10307832

Assays:
Experiment in all cases: relative viability (nuclei count vs DMSO), 5 days (fraction); higher = more cells survive
[1] = compound: CN(C)C[C@@H]1CCn2cc(c3ccccc32)C2=C(C(=O)NC2=O)c2cn(c3ccccc23)CCO1 [Ruboxistaurin] + C[C@@H](Oc1cc(-c2cnn(C3CCNCC3)c2)cnc1N)c1c(Cl)ccc(F)c1Cl [Crizotinib] (partner 1 µM)
Method in brief: (§1)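 Medians of duplicate plates are given as relative viability. That measure is the nuclei count in treated wells divided by the count in vehicle wells. Counts were taken on 4× images of lung cancer cell lines in 1536-well plates, 5 days after pin-tool dosing the day after seeding with one drug alone or a fixed anchor-drug dose plus five library-drug doses (not always all listed) in √10 steps.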

[2] = compound: CN(C)C[C@@H]1CCn2cc(c3ccccc32)C2=C(C(=O)NC2=O)c2cn(c3ccccc23)CCO1 [Ruboxistaurin] + CS(=O)(=O)N1CCN(Cc2cc3nc(-c4cccc5[nH]ncc45)nc(N4CCOCC4)c3s2)CC1 [Pictilisib] (partner 1 µM)
Method in brief: as §1

[3] = compound: CN(C)C[C@@H]1CCn2cc(c3ccccc32)C2=C(C(=O)NC2=O)c2cn(c3ccccc23)CCO1 [Ruboxistaurin] + CC(=O)Nc1cccc(-n2c(=O)n(C3CC3)c(=O)c3c(Nc4ccc(I)cc4F)n(C)c(=O)c(C)c32)c1 [Trametinib] (partner 0.02 µM)
Method in brief: as §1

Ruboxistaurin + Olaparib = compound: CN(C)C[C@@H]1CCn2cc(c3ccccc32)C2=C(C(=O)NC2=O)c2cn(c3ccccc23)CCO1 [Ruboxistaurin] + O=C(c1cc(Cc2n[nH]c(=O)c3ccccc23)ccc1F)N1CCN(C(=O)C2CC2)CC1 [Olaparib] (partner 8 µM)
Method in brief: as §1

Ruboxistaurin + AZD7762 = compound: CN(C)C[C@@H]1CCn2cc(c3ccccc32)C2=C(C(=O)NC2=O)c2cn(c3ccccc23)CCO1 [Ruboxistaurin] + NC(=O)Nc1cc(-c2cccc(F)c2)sc1C(=O)N[C@H]1CCCNC1 [AZD7762] (partner 0.2 µM)
Method in brief: as §1

| Cell Line | relative viability ([1]; first compound 0.08 µM) | relative viability ([1]; first compound 0.8 µM) | relative viability ([1]; first compound 2.53 µM) | relative viability ([1]; first compound 8 µM) | relative viability ([2]; first compound 0.08 µM) | relative viability ([2]; first compound 0.8 µM) | relative viability ([2]; first compound 2.53 µM) | relative viability ([2]; first compound 8 µM) | relative viability ([3]; first compound 0.08 µM) | relative viability ([3]; first compound 0.8 µM) | relative viability ([3]; first compound 2.53 µM) | relative viability ([3]; first compound 8 µM) | relative viability (Ruboxistaurin + Olaparib; first compound 0.08 µM) | relative viability (Ruboxistaurin + Olaparib; first compound 0.8 µM) | relative viability (Ruboxistaurin + Olaparib; first compound 2.53 µM) | relative viability (Ruboxistaurin + Olaparib; first compound 8 µM) | relative viability (Ruboxistaurin + AZD7762; first compound 0.08 µM) | relative viability (Ruboxistaurin + AZD7762; first compound 0.8 µM) | relative viability (Ruboxistaurin + AZD7762; first compound 2.53 µM) | relative viability (Ruboxistaurin + AZD7762; first compound 8 µM) |
| --- | --- | --- | --- | --- | --- | --- | --- | --- | --- | --- | --- | --- | --- | --- | --- | --- | --- | --- | --- | --- |
| NCI-H661 | 0.991 | 0.924 | 1.08 | 1.08 | 0.463 | 0.499 | 0.493 | 0.422 | 0.667 | 0.528 | 0.681 | 0.703 | 0.844 | 0.717 | 0.795 | 0.81 | – | – | – | – |
| NCI-H1563 | 0.947 | 0.873 | 0.938 | 0.741 | 0.626 | 0.662 | 0.601 | 0.618 | – | – | – | – | – | – | – | – | – | – | – | – |
| IA-LM | 1.01 | – | 0.967 | 0.938 | 0.389 | 0.271 | 0.381 | 0.323 | – | – | – | – | 0.871 | 0.836 | 0.842 | 0.912 | – | – | – | – |
| NCI-H2342 | – | – | – | – | – | – | – | – | 0.799 | 0.849 | 0.986 | 0.95 | 0.414 | 0.483 | 0.511 | 0.436 | 0.535 | 0.509 | 0.529 | 0.582 |
| SK-MES-1 | 1.06 | 1.03 | 0.979 | 0.972 | 0.417 | 0.3 | 0.323 | 0.316 | 0.629 | 0.508 | 0.492 | 0.442 | 0.726 | 0.555 | 0.905 | 0.465 | – | – | – | – |
| ABC-1 | 1.41 | 0.45 | 1.29 | 0.784 | 0.865 | 0.774 | 0.787 | 0.506 | – | – | – | – | 1.27 | 0.81 | 1.03 | 1.15 | 0.662 | 0.894 | 0.771 | 0.598 |
| COR-L 105 | 0.8 | 0.828 | 0.868 | 0.664 | 0.463 | 0.388 | 0.385 | 0.313 | 0.43 | 0.364 | 0.463 | 0.441 | 0.802 | 0.597 | 0.707 | 0.677 | – | – | – | – |
| NCI-H2009 | 1 | 0.959 | 1.06 | 1.08 | 0.819 | 0.796 | 0.825 | 0.552 | 0.328 | 0.234 | 0.258 | 0.239 | 0.764 | 0.593 | 0.748 | 0.699 | – | – | – | – |
| NCI-H1703 | 0.662 | 0.574 | 0.582 | 0.322 | 0.198 | – | 0.277 | 0.23 | – | – | – | – | 0.447 | 0.411 | 0.622 | 0.305 | 0.111 | 0.115 | 0.122 | 0.119 |
| NCI-H2023 | 0.691 | 0.588 | 0.565 | 0.503 | 0.243 | 0.179 | 0.194 | 0.156 | 0.668 | 0.491 | 0.47 | 0.405 | 0.519 | 0.458 | 0.447 | 0.296 | – | – | – | – |
